Test results: article doi:10.64898/2025.12.30.696991 (bioRxiv, 2026)
Read-outs that look alike come from different tables or passages of the source.

Key:
[1] = tested on: intracellular susceptible S. Typhimurium (ATCC 700720); experiment: Intracellular gentamicin protection assay, susceptible S. Typhimurium in RAW 264.7 macrophages; assay type: cell-based, Salmonella enterica serovar Typhimurium; conditions: for selectivity (selectivity indices): LC50 / IC50, strain not specified; for IC50: Salmonella enterica; for Selectivity: LC50 / IC50, susceptible S. Typhimurium
Procedure: (§1) RAW 264.7 cells were seeded at 3×10^4 cells/well in a 96-well plate and maintained at 37°C for 20 hours. A single colony of susceptible or MDR S. Typhimurium was inoculated and cultured overnight in nutrient broth and diluted to obtain a log-phase culture stock with an adjusted optical density (OD600) of 0.6, equivalent to a concentration of 3×10^8 CFU/mL (determined by a prior colony forming units (CFU) assay). The bacterial stock solution was resuspended in antibiotic-free DMEM supplemented with 2% FBS and further diluted to obtain a bacterial concentration of 3×10^6 CFU/mL. Cell media was aspirated and replaced with 100 μL of bacteria culture in DMEM resulting in a multiplicity of infection (MOI) of 10. The cells underwent infection for two hours or 30 minutes at 37°C with susceptible or MDR bacteria, respectively. This differential infection incubation period was based on strain-specific infectivity potential. […] Media was aspirated from the wells and replaced with DMEM (2% FBS) containing 100 μg/mL gentamicin for one hour at 37°C to eliminate extracellular bacteria. Following this step, cells were washed once with media and treated for 22 hours with analogs at varying concentrations (0.1 – 5 μM) in DMEM (2% FBS, no pen/strep) containing 10 μg/mL gentamicin to suppress extracellular bacterial growth. AR-12 treated, uninfected, and DMSO-vehicle treated cells were included as controls. Post treatment, cells were washed with PBS and lysed with 0.1% Triton-X100, a concentration sufficient to disrupt host cells while preserving bacterial integrity. The lysates containing intracellular bacteria were serially diluted and enumerated by using drop-plate assay as described previously.([27]) Agar plates were incubated overnight at 37°C before CFU from each dilution were counted.

[2] = tested on: intracellular MDR S. Typhimurium (ATCC 700408); experiment: Intracellular gentamicin protection assay, MDR S. Typhimurium in RAW 264.7 macrophages; assay type: cell-based, Salmonella enterica serovar Typhimurium; conditions: for IC50: Salmonella enterica, RAW264.7, Table 2, intracellular burden 50% in RAW 264.7; for MDR Selectivity: Table 2, LC50 / IC50; for difference of IC50 between susceptible and MDR S. Typhimurium: defined as 2-fold difference MDR IC50 / Susc IC50
Procedure: as §1
Supplemental Figure 2: Evaluating lead compound efficacy against MDR S. Typhimurium. A) Schematic illustrating gentamicin protection assay. Day 0 RAW 264.7 macrophages are seeded into 96-well plate and STM culture is inoculated. Day 1: RAW 264.7 cells are infected with STM at an MOI of 10 for 30 min, washed, then treated with gentamicin for 1hr to remove extracellular bacteria. AR-12 analogs added to infected cells for 22hr incubation. Day 2: RAWs are washed, lysed, diluted and then dropped onto agar plates. Day 3: colony forming units (CFUs) counted. B) Dose effect curves of intracellular MDR S. Typhimurium viability from RAW 264.7 macrophages after 22hr treatment with hit compounds. CFUs normalized to untreated controls. Parental compound AR-12 included for comparison.

in vitro = assay type: cell-based
Procedure: Cell proliferation and viability in the presence of the analogs was tested in the macrophage cell line RAW 264.7 using a 3-(4,5-dimethylthiazol-2-yl)-2,5-diphenyl-2H-tetrazolium bromide (MTT) assay. Cells were seeded at 3×10^4 cells/well in 96 well plates in DMEM (10% FBS, 1% pen/strep). […] DMSO vehicle was utilized as a control, as all the drugs were reconstituted from DMSO stocks. After 24 hr treatment, media was replaced with 100 μL of 0.6 mg/mL MTT solution and the cells were incubated at 37°C until formazan crystals formed. The MTT solution was then replaced with 100 μL of isopropanol, to dissolve the formazan crystals. Cell viability was determined by measuring absorbance at 560 nm of drug treated cells normalized to DMSO vehicle controls. The absorbance at 670 nm was used as a background correction. Cell viability was plotted against increasing drug concentration to obtain the 50% lethal concentration (LC50), defined as the drug concentration resulting in 50% cell viability.

[3] = tested on: planktonic susceptible S. Typhimurium (ATCC 700720); experiment: Direct effect on planktonic susceptible bacteria (optical density 600 nm); assay type: cell-based, Salmonella enterica serovar Typhimurium; conditions: Salmonella enterica
Procedure: (§2) A single colony of susceptible or MDR bacteria was inoculated into nutrient broth and incubated overnight at 37°C in an orbital shaker set at 200 rpm. The overnight culture was sub-cultured (1:100) in fresh medium to obtain log-phase bacterial growth after an additional 3 hr incubation at 37°C and further adjusted to obtain a bacterial stock solution with an absorbance value of 0.6 at 600 nm, equivalent to a concentration of 3×10^8 CFU/mL. The bacterial stock was diluted with nutrient broth to obtain 3×10^4 CFU/well in a 96 well plate. Next, 10 μL of each analog were added to yield a total volume of 100 μL /well with a final concentration of 20 μM. Drug-free and bacteria-free wells were used as controls. The plate was incubated at 37°C for 22 hr. Percent bacterial viability was determined using optical density measurements at 600 nm, subtracting out bacteria free absorbance (background) and normalizing to a DMSO vehicle control. Bacterial viability was plotted against increasing drug concentration to obtain the 50% minimum inhibitory concentration (MIC50), defined as the drug concentration resulting in 50% bacterial viability.

[4] = tested on: planktonic MDR S. Typhimurium (ATCC 700408); experiment: Direct effect on planktonic MDR bacteria (optical density 600 nm); assay type: cell-based, Salmonella enterica serovar Typhimurium; conditions: Salmonella enterica, Table 2, OD 600 nm
Procedure: as §2

[5] = RAW264.7, 22 h, Table 1, concentration at which intracellular susceptible S. Typhimurium burden is 50% in RAW 264.7 macrophages, 22 h treatment, read-out: IC50
[6] = RAW264.7, Table 2, intracellular burden 50% in RAW 264.7, read-out: Susc. IC50
[7] = Table 1, planktonic susceptible S. Typhimurium viability 50% by optical density, 22 hr, read-out: MIC50
[8] = Table 2, planktonic Salmonella, OD 600 nm, read-out: Susc. MIC50

| IC50 [1, 5] | IC50 [1, 6] | IC50 [2] | MIC50 [3, 7] | MIC50 [3, 8] | MIC50 [4] | difference of IC50 between susceptible and MDR S. Typhimurium [2] | SMILES | selectivity (selectivity indices) [1] | Selectivity ([1]; Table 1) | MDR Selectivity [2] | CC50 at 24 h (in vitro; Table 1, RAW 264.7 viability reduced by 50%, MTT assay, 24 hr, 1–100 μM, read-out: LC50) | CC50 at 24 h (in vitro; Table 2, RAW 264.7 viability 50%, colorimetric assay, extended up to 500 μM, read-out: LC50) | CC50 at 24 h (in vitro; mouse, LC50) | improvement in selectivity over AR-12 [1] |
| --- | --- | --- | --- | --- | --- | --- | --- | --- | --- | --- | --- | --- | --- | --- |
| 0.11 µM | 0.11 µM | 0.14 µM | > 20 µM | > 20 µM | > 20 µM | – | FC(F)(F)c1cc(C2CCCCC2)n(-c2ccc(NC3CCN(Cc4ccccc4)CC3)cc2)n1 [Compound 381] | – | 260 | 211 | – | – | 28.6 µM | – |
| 0.31 µM | 0.31 µM | 0.18 µM | > 20 µM | > 20 µM | > 20 µM | – | FC(F)(F)c1cc(C2CCCCC2)n(-c2ccc(OC3CCN(Cc4ccccc4)C3)cc2)n1 (centres unmarked) [Compound 378] | – | >322 | – | – | – | – | approximately 100 fold |
| 0.1 µM | 0.1 µM | 0.2 µM | > 20 µM | > 20 µM | > 20 µM | strongly different | N#Cc1ccc(CN2CCC(Nc3ccc(-n4nc(C(F)(F)F)cc4C4CCCCC4)cc3)CC2)cc1 [Compound 323] | – | 333 | 160 | – | – | 32 µM | – |
| 0.08 µM | 0.08 µM | 0.1 µM | > 20 µM | > 20 µM | > 20 µM | – | NCC(=O)Nc1ccc(-n2nc(C(F)(F)F)cc2C2CCCCC2)cc1 [Compound 341] | – | 398 | 318 | – | – | 31.8 µM | – |
| 0.13 µM | 0.13 µM | 0.12 µM | > 20 µM | > 20 µM | > 20 µM | – | FC(F)(F)c1cc(C2CCCCC2)n(-c2ccc(N3CCC(NCc4ccccc4)C3)cc2)n1 (centres unmarked) [Compound 364] | – | 269 | 291 | – | – | 35 µM | – |
| 0.14 µM | 0.14 µM | 0.11 µM | > 20 µM | > 20 µM | > 20 µM | – | FC(F)(F)c1cc(C2CCCCC2)n(-c2ccc(OC3CCN(Cc4ccccc4)CC3)cc2)n1 [Compound 371] | – | 644 | 790 | – | – | 90.2 µM | – |
| 0.15 µM | 0.15 µM | 0.37 µM | > 20 µM | > 20 µM | > 20 µM | strongly different | N#Cc1ccc(CNC2CCN(c3ccc(-n4nc(C(F)(F)F)cc4C4CCCCC4)cc3)C2)cc1 (centres unmarked) [Compound 365] | – | 285 | 115 | – | – | 42.7 µM | – |
| 0.08 µM | 0.08 µM | 0.16 µM | > 20 µM | > 20 µM | > 20 µM | strongly different | NC1CCN(c2ccc(-n3nc(C(F)(F)F)cc3C3CCCCC3)cc2)CC1 [Compound 324] | – | 244 | 118 | – | – | 18.8 µM | – |
| 0.14 µM | 0.14 µM | 0.12 µM | > 20 µM | > 20 µM | > 20 µM | – | Fc1cccc(CN2CCC(Nc3ccc(-n4nc(C(F)(F)F)cc4C4CCCCC4)cc3)CC2)c1 [Compound 322] | – | 324 | 372 | – | – | 43.7 µM | – |
| 0.08 µM | 0.08 µM | 0.06 µM | > 20 µM | > 20 µM | > 20 µM | – | FC(F)(F)c1cc(C2CCCCC2)n(-c2ccc(OC3CCNCC3)cc2)n1 [Compound 370] | – | 229 | 269 | – | – | 17.2 µM | – |
| 0.13 µM | ~0.13 µM | 0.17 µM | > 20 µM | > 20 µM | > 20 µM | – | Fc1cccc(CN2CCC(Oc3ccc(-n4nc(C(F)(F)F)cc4C4CCCCC4)cc3)CC2)c1 [Compound 372] | > 2000 | >769 | – | – | – | – | – |
| 0.13 µM | ~0.13 µM | ~0.13 µM | > 20 µM | > 20 µM | > 20 µM | – | N#Cc1ccc(CN2CCC(Oc3ccc(-n4nc(C(F)(F)F)cc4C4CCCCC4)cc3)CC2)cc1 [Compound 373] | > 2000 | >769 | – | – | – | – | – |

| SMILES | IC50 [1, 5] | IC50 [1, 6] | IC50 [2] | MIC50 [3, 7] | MIC50 [3, 8] | MIC50 [4] | difference of IC50 between susceptible and MDR S. Typhimurium [2] | selectivity (selectivity indices) [1] | Selectivity ([1]; Table 1) | MDR Selectivity [2] | CC50 at 24 h (in vitro; Table 1, RAW 264.7 viability reduced by 50%, MTT assay, 24 hr, 1–100 μM, read-out: LC50) | CC50 at 24 h (in vitro; Table 2, RAW 264.7 viability 50%, colorimetric assay, extended up to 500 μM, read-out: LC50) | CC50 at 24 h (in vitro; mouse, LC50) | improvement in selectivity over AR-12 [1] |
| --- | --- | --- | --- | --- | --- | --- | --- | --- | --- | --- | --- | --- | --- | --- |
| NCC(=O)Nc1ccc(-n2nc(C(F)(F)F)cc2-c2ccc3c(ccc4ccccc43)c2)cc1 [AR-12, reference compound] | 0.42 µM | 0.4 µM | 0.34 µM | > 20 µM | > 20 µM | > 20 µM | – | around 20 | 19.8 | 24.4 | 8 µM | 8.3 µM | – | – |
